From US20110044938A1 (NYCOMED GMBH, priority 2006, published 2011) come the findings set out here.

Experiment [1] relates to subclones of RKO colon adenocarcinoma cells (RKOp27 or RKOp21) arrested by Ponasterone A. As to the kind of experiment: Alamar Blue cell viability assay, cell cycle specific mode of action: cells arrested by ectopic p27Kip1 induced by Ponasterone A versus proliferating cells. It counts as cell-based. Conditions: Homo sapiens, RKO p27 induced (arrested) cells, 10 μM Ponasterone A, 72 hours, value = class bound given in Table A, read-out: −logIC50 RKO p27 induced (arrested) (converted). On the procedure:
To determine the cell cycle specific mode of action, subclones of RKO colon adenocarcinoma cells (RKOp27 or RKOp21 as described by Schmidt et al. in Oncogene 19, 2423-2429; 2000) are seeded into 96 well flat bottom plates at a density of 15000 cells per well in a volume of 50 μl per well in DMEM growth medium with 10% FCS containing 10 μM Ponasterone A. 24 hours after seeding the 50 μl each of the compound dilutions in DMEM medium are added into each well of the 96 Well plate. Each compound dilution is tested as quadruplicates. Wells containing untreated control cells are filled with 50 μl DMEM medium containing 1% DMSO. The cells are then incubated with the substances for 72 hours at 37° C. in a humidified athmosphere containing 5% carbon dioxide. To determine the viability of the cells, 10 μl of an Alamar Blue solution (Biosource) are added and the fluorescence was measured at an extinction of 544 nm and an emission of 590 nm. For the calculation of the cell viability the emission value from untreated cells is set as 100% viability and the emission rates of treated cells are set in relation to the values of untreated cells. Viabilities are expressed as % values. Viability is compared of proliferating cells grown in the absence of the inducer Ponasterone A, versus viability of cells arrested by the expression of ectopic p27Kip1 induced by Ponasterone A.
(§1) Representative −log IC50 [mol/l] values for anti-proliferation/cytotoxicity determined in the mentioned assays follow from the following table A, in which the numbers of the compound correspond to the numbers of the examples.

Experiment [2] deals with RKO (RKOp27) human colon adenocarcinoma cells. As to the kind of experiment: Alamar Blue cell viability assay, anti-proliferative/cytotoxic activity on proliferating RKO subclones. Particulars: RKOp27, 72 h, RKO p27 uninduced (proliferating) cells, value = class bound given in Table A, read-out: −logIC50 RKO p27 uninduced (proliferating) (converted). It counts as cell-based. On the procedure:
The anti-proliferative/cytotoxic activity of the compounds described herein, can be tested on subclones of RKO (RKOp27) human colon adenocarcinoma cells (Schmidt et al., Oncogene 19, 2423-2429; 2000) using the Alamar Blue cell viability assay (described in O'Brien et al. Eur J Biochem 267, 5421-5426, 2000). The compounds are dissolved as 20 mM solutions in dimethylsulfoxide (DMSO) and subsequently diluted in semi-logarithmic steps. DMSO dilutions are further diluted 1:100 into Dulbecco's modified Eagle's medium (DMEM) containing 10% fetal calf serum to a final concentration twice as much as the final concentration in the test. RKO subclones are seeded into 96 well flat bottom plates at a density of 5000 cells per well in a volume of 50 μl per well. 24 hours after seeding the 50 μl each of the compound dilutions in DMEM medium are added into each well of the 96 Well plate. Each compound dilution is tested as quadruplicates. Wells containing untreated control cells are filled with 50 μl DMEM medium containing 1% DMSO. The cells are then incubated with the substances for 72 hours at 37° C. in a hunified atmosphere containing 5% carbon dioxide. To determine the viability of the cells, 10 μl of an Alamar Blue solution (Biosource) are added and the fluorescence is measured at an extinction of 544 nm and an emission of 590 nm. For the calculation of the cell viability the emission value from untreated cells is set as 100% viability and the emission rates of treated cells are set in relation to the values of untreated cells. Viabilities are expressed as % values.
The corresponding IC50 values of the compounds for anti-proliferative/cytotoxic activity are determined from the concentration-effect curves.
as §1

Regarding `N#Cc1c(NC(=O)/C=C/c2cccnc2)sc2c1CCC(OC(=O)NCc1ccccc1)C2` (stereo not drawn) [Example 2, Benzyl-carbamic acid 3-cyano-2-((E)-3-pyridin-3-yl-allanoylamino)-4,5,6,7-tetrahydro-benzo[b]thiophen-6-yl ester], the IC50 in experiment [1] is no less than 10000 nM; in experiment [2], 501 to 2000 nM.
Take `CCNC(=O)OC1CCc2c(sc(NC(=O)/C=C/c3cccnc3)c2C#N)C1` (stereo not drawn) [Example 3, Ethyl-carbamic acid 3-cyano-2-((E)-3-pyridin-3-yl-allanoylamino)-4,5,6,7-tetrahydro-benzo[b]thiophen-6-yl ester]: the IC50 was no less than 100000 nM in experiment [1] and no more than 501 nM in experiment [2].
On to `CCOC(=O)OC1CCc2c(sc(NC(=O)/C=C/c3cccnc3)c2C#N)C1` (stereo not drawn) [Example 4, Carbonic acid 3-cyano-2-((E)-3-pyridin-3-yl-allanoylamino)-4,5,6,7-tetrahydro-benzo[b]thiophen-6-yl ester ethyl ester], for which the values for the IC50 in experiment [1] and in experiment [2] were no less than 100000 nM and no more than 501 nM, respectively.
On to `CCNC(=O)OC1CCc2c(sc(NC(=O)/C=C/c3ccccc3OCC)c2C#N)C1` (stereo not drawn) [Example 5, Ethyl-carbamic acid 3-cyano-2-[(E)-3-(2-ethoxy-phenyl)-allanoylamino]-4,5,6,7-tetrahydro-benzo[b]thiophen-6-yl ester], for which the figures for the IC50 in experiment [1] and in experiment [2] were no less than 10000 nM and no more than 501 nM, respectively.
As to `CCOC(=O)OC1CCc2c(sc(NC(=O)/C=C/c3ccccc3OCC)c2C#N)C1` (stereo not drawn) [Example 6, Carbonic acid 3-cyano-2-[(E)-3-(2-ethoxy-phenyl)-allanoylamino]-4,5,6,7-tetrahydro-benzo[b]thiophen-6-yl ester ethyl ester], the results for the IC50 in experiment [1] and in experiment [2] were no less than 100000 nM and 501 to 2000 nM, respectively.
For `N#Cc1c(NC(=O)/C=C/c2cccnc2)sc2c1CCC(COC(=O)NCc1ccccc1)C2` (stereo not drawn) [Example 7, Benzyl-carbamic acid 3-cyano-2-((E)-3-pyridin-3-yl-allanoylamino)-4,5,6,7-tetrahydro-benzo[b]thiophen-6-ylmethyl ester], in that order: no less than 100000 nM and no more than 501 nM.
With `CCOC(=O)OCC1CCc2c(sc(NC(=O)/C=C/c3cccnc3)c2C#N)C1` (stereo not drawn) [Example 8, Carbonic acid 3-cyano-2-((E)-3-pyridin-3-yl-allanoylamino)-4,5,6,7-tetrahydro-benzo[b]thiophen-6-ylmethyl ester ethyl ester], the IC50 was no less than 100000 nM in experiment [1] and 501 to 2000 nM in experiment [2].
Take `CCNC(=O)OCC1CCc2c(sc(NC(=O)/C=C/c3cccnc3)c2C#N)C1` (stereo not drawn) [Example 9, Ethyl-carbamic acid 3-cyano-2-((E)-3-pyridin-3-yl-allanoylamino)-4,5,6,7-tetrahydro-benzo[b]thiophen-6-ylmethyl ester]: the IC50 is no less than 100000 nM in experiment [1] and 501 to 2000 nM in experiment [2].
Turning to `CCNC(=O)OC[C@H]1CCc2c(sc(NC(=O)/C=C/c3cccnc3)c2C#N)C1` [Example 9a, (S)-Ethyl-carbamic acid 3-cyano-2-((E)-3-pyridin-3-yl-allanoylamino)-4,5,6,7-tetrahydro-benzo[b]thiophen-6-ylmethyl ester], the figures for the IC50 in experiment [1] and in experiment [2] were no less than 100000 nM and no more than 501 nM, respectively.
Regarding `CCNC(=O)OC[C@@H]1CCc2c(sc(NC(=O)/C=C/c3cccnc3)c2C#N)C1` [Example 9b, (R)-Ethyl-carbamic acid 3-cyano-2-((E)-3-pyridin-3-yl-allanoylamino)-4,5,6,7-tetrahydro-benzo[b]thiophen-6-ylmethyl ester], the IC50 in experiment [1] is no less than 100000 nM; in experiment [2], no more than 501 nM.
On to `CCNC(=O)OCC1CCc2c(sc(NC(=O)/C=C/c3ccccc3OCC)c2C#N)C1` (stereo not drawn) [Example 10, Ethyl-carbamic acid 3-cyano-2-[(E)-3-(2-ethoxy-phenyl)-allanoylamino]-4,5,6,7-tetrahydro-benzo[b]thiophen-6-ylmethyl ester], for which the IC50 in experiment [1] is no less than 100000 nM; in experiment [2], no more than 501 nM.
Taken in the same sequence, the figures for `CCOc1ccccc1/C=C/C(=O)Nc1sc2c(c1C#N)CCC(OC(=O)OCCOC)C2` (stereo not drawn) [Example 11, Carbonic acid 3-cyano-2-[(E)-3-(2-ethoxy-phenyl)-allanoylamino]-4,5,6,7-tetrahydro-benzo[b]thiophen-6-yl ester 2-methoxy-ethyl ester] were no less than 100000 nM and no more than 501 nM.
For `CCOc1ccccc1/C=C/C(=O)Nc1sc2c(c1C#N)CCC(OC(=O)NCCOC)C2` (stereo not drawn) [Example 12, (2-Methoxy-ethyl)-carbamic acid 3-cyano-2-[(E)-3-(2-ethoxy-phenyl)-allanoylamino]-4,5,6,7-tetrahydro-benzo[b]thiophen-6-yl ester], in that order: no less than 50100 nM and no more than 501 nM.
Consider `CCOc1ccccc1/C=C/C(=O)Nc1sc2c(c1C#N)CCC(OC(=O)OCCN1CCOCC1)C2` (stereo not drawn) [Example 13, Carbonic acid 3-cyano-2-[(E)-3-(2-ethoxy-phenyl)-allanoylamino]-4,5,6,7-tetrahydro-benzo[b]thiophen-6-yl ester 2-morpholin-4-yl-ethyl ester], for which the IC50 in experiment [1] was no less than 100000 nM; in experiment [2] it was 501 to 2000 nM.
As to `CCOc1ccccc1/C=C/C(=O)Nc1sc2c(c1C#N)CCC(OC(=O)NCc1cccnc1)C2` (stereo not drawn) [Example 14, Pyridin-3-ylmethyl-carbamic acid 3-cyano-2-[(E)-3-(2-ethoxy-phenyl)-allanoylamino]-4,5,6,7-tetrahydro-benzo[b]thiophen-6-yl ester], the IC50 in experiment [1] is no less than 50100 nM; in experiment [2], 501 to 2000 nM.
`CCOc1ccccc1/C=C/C(=O)Nc1sc2c(c1C#N)CCC(COC(=O)NCc1ccccn1)C2` (stereo not drawn) [Example 15, Pyridin-2-ylmethyl-carbamic acid 3-cyano-2-[(E)-3-(2-ethoxy-phenyl)-allanoylamino]-4,5,6,7-tetrahydro-benzo[b]thiophen-6-ylmethyl ester]: the IC50 in experiment [1] is no less than 100000 nM; in experiment [2] it was 501 to 2000 nM.
With `CNC(=O)OCC1CCc2c(sc(NC(=O)/C=C/c3cccnc3)c2C#N)C1` (stereo not drawn) [Example 16, Methyl-carbamic acid 3-cyano-2-((E)-3-pyridin-3-yl-allanoylamino)-4,5,6,7-tetrahydro-benzo[b]thiophen-6-ylmethyl ester], the IC50 is no less than 100000 nM in experiment [1] and no more than 501 nM in experiment [2].
Turning to `CNC(=O)OC[C@H]1CCc2c(sc(NC(=O)/C=C/c3cccnc3)c2C#N)C1` [Example 16a, (S)-Methyl-carbamic acid 3-cyano-2-((E)-3-pyridin-3-yl-allanoylamino)-4,5,6,7-tetrahydro-benzo[b]thiophen-6-ylmethyl ester], the results for the IC50 in experiment [1] and in experiment [2] were no less than 100000 nM and no more than 501 nM, respectively.
Consider `CNC(=O)OC[C@@H]1CCc2c(sc(NC(=O)/C=C/c3cccnc3)c2C#N)C1` [Example 16b, Methyl-carbarnic acid (R)-3-cyano-2-((E)-3-pyridin-3-yl-allanoylamino)-4,5,6,7-tetrahydro-benzo[b]thiophen-6-ylmethyl ester], for which the IC50 was no less than 100000 nM in experiment [1] and 501 to 2000 nM in experiment [2].
On to `COCCNC(=O)OC1CCc2c(sc(NC(=O)/C=C/c3cccnc3)c2C#N)C1` (stereo not drawn) [Example 18, (2-Methoxy-ethyl)-carbamic acid 3-cyano-2-((E)-3-pyridin-3-yl-allanoylamino)-4,5,6,7-tetrahydro-benzo[b]thiophen-6-yl ester], for which the IC50 in experiment [1] is no less than 100000 nM; in experiment [2], 501 to 2000 nM.
For the compound `N#Cc1c(NC(=O)/C=C/c2cccnc2)sc2c1CCC(COC(=O)NCCc1cccnc1)C2` (stereo not drawn) [Example 19, (2-Pyridin-3-yl-ethyl)-carbamic acid 3-cyano-2-((E)-3-pyridin-3-yl-allanoylamino)-4,5,6,7-tetrahydro-benzo[b]thiophen-6-ylmethyl ester], the IC50 is no less than 100000 nM in experiment [1] and 501 to 2000 nM in experiment [2].
